TGI and GI50 data for nine compounds are collected here from PubChem BioAssay (NCI).

Test systems include NCI/ADR-RES ovarian; RXF 393 renal; UACC-257 melanoma; HL-60(TB) leukemia; SK-MEL-2 melanoma; OVCAR-3 ovarian; SN12C renal; MDA-MB-435; SF-295 CNS; UO-31 renal.
Holding throughout (test): growth of human tumour cells (NCI), 48 h

SMILES strings stand for the structures. Values joined by “and” are separate entries in the source; they are usually repeats but may differ in a detail not shown here. Identical values can stand only once.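 These data come from cells grown in 96-well plates and exposed to compound for 48 hours at five concentrations. GI50: concentration for 50% inhibition of growth. The concentration for full growth arrest is given as TGI.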 A value given as a limit tells only on which side of the number the result lay.

Consider `CC1OC(n2cc(F)c(=O)[nH]c2=O)CCC1O` (configuration not stated), for which the TGI with NCI/ADR-RES ovarian, in the assay on RXF 393 renal, in the assay on UACC-257 melanoma, with HL-60(TB) leukemia, in the assay on SK-MEL-2 melanoma and in the assay with OVCAR-3 ovarian was greater than 100 µM in each case. The TGI in the assay with SN12C renal, in the assay on MDA-MB-435, in the assay with SF-295 CNS and with UO-31 renal was greater than 100 µM in each case.
With `O=C(CI)NC1Oc2ccccc2-c2oc(=O)c(-c3ccccc3)cc21` (configuration not stated), the GI50 in the assay on RXF 393 renal is 1.5 µM; with UACC-257 melanoma, 2.07 µM; in the assay on HL-60(TB) leukemia it was 2.09 µM; in the assay on SK-MEL-2 melanoma, 2.17 µM; in the assay on OVCAR-3 ovarian it was 1.3 µM; with MDA-MB-435, 1.68 µM. Further, the figures for the GI50 in the assay with SF-295 CNS and in the assay on UO-31 renal were 1.77 µM and 1.86 µM, respectively. For the same compound, the TGI with RXF 393 renal came out at 3 µM; in the assay on UACC-257 melanoma, 4.84 µM; in the assay with HL-60(TB) leukemia, 4.94 µM; with SK-MEL-2 melanoma it was 5.43 µM; in the assay with OVCAR-3 ovarian, 2.71 µM; with MDA-MB-435, 3.16 µM. Also, the figures for the TGI in the assay on SF-295 CNS and in the assay on UO-31 renal were 3.37 µM and 3.28 µM, respectively.
In the case of `N#C/C(=C1C=C/C(=N/O)C(Br)=C/1)c1ccccc1`, the GI50 was 2.61 µM in the assay with NCI/ADR-RES ovarian; 3.01 µM in the assay with RXF 393 renal; 6.61 µM with UACC-257 melanoma; 2.16 µM in the assay with HL-60(TB) leukemia; 3.64 µM in the assay on SK-MEL-2 melanoma; 3.48 µM with OVCAR-3 ovarian. For the same compound, the GI50 is 3.68 µM in the assay with SN12C renal, 0.495 µM in the assay with MDA-MB-435, 2.81 µM in the assay with SF-295 CNS and 2.04 µM with UO-31 renal. The TGI with NCI/ADR-RES ovarian amounted to 84.1 µM; in the assay on RXF 393 renal, 11.5 µM; in the assay on UACC-257 melanoma, 55.9 µM; in the assay with HL-60(TB) leukemia it was 6.31 µM; in the assay with SK-MEL-2 melanoma it was 13.9 µM; in the assay on OVCAR-3 ovarian, 11.4 µM. Also, the TGI in the assay with SN12C renal was found to be 16.8 µM; with MDA-MB-435, 2.32 µM; with SF-295 CNS it was 8.47 µM; with UO-31 renal, 15.4 µM.
Consider `Cn1c(N2NC(=O)C(N=Nc3ccc(S(N)(=O)=O)cc3)C2=O)nc(-c2ccco2)c(C#N)c1=O` (configuration not stated), for which the GI50 was greater than 50 µM in the assay on NCI/ADR-RES ovarian; 9.65 µM in the assay with RXF 393 renal; greater than 50 µM with UACC-257 melanoma; 5.04 µM in the assay on HL-60(TB) leukemia; greater than 50 µM with SK-MEL-2 melanoma; 13.4 µM in the assay with OVCAR-3 ovarian. In addition, the GI50 with SN12C renal was greater than 50 µM; in the assay on MDA-MB-435, 32.3 µM; in the assay with SF-295 CNS, greater than 50 µM; with UO-31 renal, greater than 50 µM. In addition, the TGI in the assay on NCI/ADR-RES ovarian is greater than 50 µM; in the assay on RXF 393 renal, 26.1 µM; in the assay with UACC-257 melanoma it was greater than 50 µM; with HL-60(TB) leukemia, 18.4 µM; in the assay on SK-MEL-2 melanoma, greater than 50 µM; with OVCAR-3 ovarian, greater than 50 µM. Besides, the TGI in the assay on SN12C renal, with MDA-MB-435, in the assay with SF-295 CNS and with UO-31 renal was greater than 50 µM in each case.
Take `CCOC(=O)CCc1cc(=O)oc2cc(O)cc(O)c12`: the TGI in the assay with NCI/ADR-RES ovarian, with RXF 393 renal, in the assay on UACC-257 melanoma, in the assay on HL-60(TB) leukemia, in the assay with SK-MEL-2 melanoma and in the assay on OVCAR-3 ovarian was greater than 100 µM throughout. The TGI in the assay on SN12C renal, in the assay with MDA-MB-435, with SF-295 CNS and in the assay with UO-31 renal was greater than 100 µM throughout.
Regarding `CC[CH2][Pb]([CH2]CC)([CH2]CC)[O]C(=O)C(F)(F)F`, the GI50 in the assay with NCI/ADR-RES ovarian was 0.298 µM; with RXF 393 renal it was 0.0724 µM; in the assay with UACC-257 melanoma it was 0.154 µM; with HL-60(TB) leukemia, 0.0446 µM; with SK-MEL-2 melanoma it was 0.214 µM; in the assay on OVCAR-3 ovarian, 0.0885 µM. Moreover, the GI50 in the assay on SN12C renal was 0.195 µM; in the assay on MDA-MB-435 it was 0.0379 µM; in the assay on SF-295 CNS, 0.182 µM; with UO-31 renal, 0.141 µM. Also, the TGI in the assay on NCI/ADR-RES ovarian was 1.06 µM; with RXF 393 renal it was 0.277 µM; in the assay on UACC-257 melanoma it was 0.455 µM; in the assay on HL-60(TB) leukemia, 0.247 µM; in the assay on SK-MEL-2 melanoma, 0.462 µM; in the assay with OVCAR-3 ovarian, 0.239 µM. The TGI was determined as 0.535 µM with SN12C renal, 0.106 µM in the assay with MDA-MB-435, 0.434 µM with SF-295 CNS and 0.409 µM in the assay with UO-31 renal.
For `CN(C)CCC(=O)N1C/C(=C/c2ccccc2)C(=O)/C(=C\c2ccccc2)C1`, the TGI in the assay with RXF 393 renal was determined as 4.94 µM; in the assay with UACC-257 melanoma, 4.61 µM; in the assay on HL-60(TB) leukemia it was 1.81 µM; in the assay on SK-MEL-2 melanoma, 8.74 µM; with OVCAR-3 ovarian, 7.05 µM; in the assay on SN12C renal, 3.84 µM. The values for the TGI in the assay on MDA-MB-435, with SF-295 CNS and with UO-31 renal were 3.85 µM, 8.55 µM and 5.21 µM, respectively.
For the compound `C[C@]12CC[C@H](O)CC1=CC[C@@H]1[C@@H]2CC[C@]2(C)C(c3cccnc3)=CC[C@@H]12`, the GI50 is 38.4 µM with NCI/ADR-RES ovarian; 3.32 µM with RXF 393 renal; greater than 100 µM in the assay on UACC-257 melanoma; greater than 100 µM with HL-60(TB) leukemia; 34.5 µM in the assay on SK-MEL-2 melanoma; 82.1 µM with OVCAR-3 ovarian. For the same compound, the GI50 was greater than 100 µM in the assay on SN12C renal, 12.2 µM in the assay on MDA-MB-435, 6.07 µM in the assay with SF-295 CNS and greater than 100 µM with UO-31 renal. Also, the TGI was greater than 100 µM in the assay with NCI/ADR-RES ovarian; 19 µM in the assay with RXF 393 renal; greater than 100 µM in the assay on UACC-257 melanoma; greater than 100 µM with HL-60(TB) leukemia; greater than 100 µM with SK-MEL-2 melanoma; greater than 100 µM in the assay on OVCAR-3 ovarian. Also, the TGI in the assay with SN12C renal, in the assay with MDA-MB-435, in the assay on SF-295 CNS and with UO-31 renal was greater than 100 µM each time.
For the compound `COc1cccc(-c2cc(=O)c3cc(N(C)C)ccc3[nH]2)c1`, the GI50 is 0.0144 µM and 0.00533 µM in the assay on NCI/ADR-RES ovarian; 0.0111 µM and 0.00264 µM with HL-60(TB) leukemia; 0.0359 µM and 0.00735 µM in the assay with SK-MEL-2 melanoma; 0.0153 µM and 0.00266 µM with OVCAR-3 ovarian; 0.0169 µM and 0.0296 µM and 0.00485 µM with SF-295 CNS; 0.0642 µM and 0.0126 µM and 0.0132 µM in the assay on UO-31 renal. For the same compound, the TGI is 0.0318 µM and 0.021 µM and 0.0222 µM in the assay with NCI/ADR-RES ovarian; greater than 100 µM in the assay with UACC-257 melanoma; 0.0621 µM and 0.00853 µM in the assay on HL-60(TB) leukemia; greater than 100 µM in the assay on SN12C renal; 0.0103 µM and 0.00361 µM in the assay on MDA-MB-435; > 100 µM and 78.1 µM in the assay on UO-31 renal.
